Several values for one entry are separate records, joined by “and”; a condition that tells them apart may be missing. Identical values can stand only once.
Test system: C. elegans
Experiment: C. elegans motor phenotype scoring on solid media (Punc/jerky-unc, coiled, paralyzed), wild-type young adults
Type: in vivo, Caenorhabditis elegans
Conditions: for any phene, mean % fraction of young adults exhibiting any phenotype (coiled, jerky-Unc or paralyzed) / atypical locomotion (number of animals) / coiled (number of animals) / no phene (number of animals) / paralyzed (number of animals): one hour; for any phene, mean % fraction of young adults exhibiting any phenotype (coiled, jerky-Unc or paralyzed): mean of three biological replicates; for atypical locomotion (number of animals) / coiled (number of animals) / no phene (number of animals) / paralyzed (number of animals): young adults, 20 animals per trial, single replicate counts; for AVERAGES Fraction Coiled / AVERAGES Fraction Paralyzed / AVERAGES Fraction Punc: average of 3 replicates
[1] = 15 μM, 30 min, single replicate
[2] = 15 μM, 60 min, single replicate
[3] = 15 μM, 90 min, single replicate
[4] = 15 μM, 120 min, single replicate
[5] = 15 μM, 240 min, single replicate
[6] = 15 μM, 360 min, single replicate
[7] = 30 μM, 30 min, single replicate
[8] = 30 μM, 60 min, single replicate
[9] = 30 μM, 90 min, single replicate

Q: How did the “any phene, mean % fraction of young adults exhibiting any phenotype (coiled, jerky-Unc or paralyzed)” value (3.75uM) turn out when O=[N+]([O-])c1ccc(N2CCN(CC3CC=CCC3)CC2)cc1 (centres unmarked) [Nemacol-4] was run?
A: Its value is 15%.

Q: And the “atypical locomotion (number of animals)” value (3.75uM)?
A: Its value is 0 and 4 and 11.

Q: What about the “coiled (number of animals)” value (3.75uM) of the same compound?
A: Its value is 0 and 1.

Q: What about the “no phene (number of animals)” value (3.75uM) of the same compound?
A: The value was 20 and 14 and 8.

Q: What about the “paralyzed (number of animals)” value (3.75uM) of the same compound?
A: The value was 0 and 1.

Q: And the “AVERAGES Fraction Coiled” value (15 μM, 30 min)?
A: Its value is 0.0.

Q: What about the “AVERAGES Fraction Paralyzed” value (15 μM, 30 min) of the same compound?
A: The value was 0.0.

Q: And the “AVERAGES Fraction Punc” value (15 μM, 30 min)?
A: Its value is 0.222.

Q: What about the “C1 (number of animals)” value [1] of the same compound?
A: The value was 0.

Q: What about the “C2 (number of animals)” value [1] of the same compound?
A: Its value is 0.

Q: What about the “Fraction Coiled” value [1] of the same compound?
A: Its value is 0.0.

Q: And the “Fraction Paralyzed” value [1]?
A: The value was 0.0.

Q: And the “Fraction Punc” value [1]?
A: The value was 0.111 and 0.4.

Q: And the “NP (number of animals)” value [1]?
A: Its value is 16 and 11.

Q: And the “P (number of animals)” value [1]?
A: The value was 0.

Q: What about the “Punc (number of animals)” value [1] of the same compound?
A: Its value is 2 and 7.

Q: What about the “AVERAGES Fraction Coiled” value (15 μM, 60 min) of the same compound?
A: Its value is 0.0185.

Q: And the “AVERAGES Fraction Paralyzed” value (15 μM, 60 min)?
A: Its value is 0.0.

Q: And the “AVERAGES Fraction Punc” value (15 μM, 60 min)?
A: Its value is 0.426.

Q: What about the “C1 (number of animals)” value [2] of the same compound?
A: Its value is 1.

Q: What about the “C2 (number of animals)” value [2] of the same compound?
A: The value was 0.

Q: What about the “Fraction Coiled” value [2] of the same compound?
A: The value was 0.0556.

Q: And the “Fraction Paralyzed” value [2]?
A: The value was 0.0.

Q: What about the “Fraction Punc” value [2] of the same compound?
A: Its value is 0.4 and 0.6.

Q: What about the “NP (number of animals)” value [2] of the same compound?
A: The value was 10 and 7.

Q: And the “P (number of animals)” value [2]?
A: The value was 0.

Q: And the “Punc (number of animals)” value [2]?
A: The value was 7 and 11.

Q: What about the “AVERAGES Fraction Coiled” value (15 μM, 90 min) of the same compound?
A: Its value is 0.0.

Q: And the “AVERAGES Fraction Paralyzed” value (15 μM, 90 min)?
A: Its value is 0.0.

Q: What about the “AVERAGES Fraction Punc” value (15 μM, 90 min) of the same compound?
A: The value was 0.352.

Q: And the “C1 (number of animals)” value [3]?
A: The value was 0.

Q: What about the “C2 (number of animals)” value [3] of the same compound?
A: The value was 0.

Q: What about the “Fraction Coiled” value [3] of the same compound?
A: Its value is 0.0.

Q: And the “Fraction Paralyzed” value [3]?
A: Its value is 0.0.

Q: And the “Fraction Punc” value [3]?
A: Its value is 0.5.

Q: What about the “NP (number of animals)” value [3] of the same compound?
A: The value was 9.

Q: What about the “P (number of animals)” value [3] of the same compound?
A: The value was 0.

Q: And the “Punc (number of animals)” value [3]?
A: Its value is 9.

Q: And the “AVERAGES Fraction Coiled” value (15 μM, 120 min)?
A: Its value is 0.0185.

Q: And the “AVERAGES Fraction Paralyzed” value (15 μM, 120 min)?
A: Its value is 0.0.

Q: And the “AVERAGES Fraction Punc” value (15 μM, 120 min)?
A: Its value is 0.3.

Q: And the “C1 (number of animals)” value [4]?
A: The value was 0.

Q: And the “C2 (number of animals)” value [4]?
A: The value was 0.

Q: What about the “Fraction Coiled” value [4] of the same compound?
A: The value was 0.0.

Q: What about the “Fraction Paralyzed” value [4] of the same compound?
A: Its value is 0.0.

Q: What about the “Fraction Punc” value [4] of the same compound?
A: The value was 0.333 and 0.4.

Q: What about the “NP (number of animals)” value [4] of the same compound?
A: The value was 12 and 11.

Q: What about the “P (number of animals)” value [4] of the same compound?
A: Its value is 0.

Q: What about the “Punc (number of animals)” value [4] of the same compound?
A: Its value is 6 and 7.

Q: And the “AVERAGES Fraction Coiled” value (15 μM, 240 min)?
A: Its value is 0.0185.

Q: And the “AVERAGES Fraction Paralyzed” value (15 μM, 240 min)?
A: The value was 0.0.

Q: And the “AVERAGES Fraction Punc” value (15 μM, 240 min)?
A: Its value is 0.0741.

Q: And the “C1 (number of animals)” value [5]?
A: The value was 1.

Q: And the “C2 (number of animals)” value [5]?
A: The value was 0.

Q: And the “Fraction Coiled” value [5]?
A: Its value is 0.0556.

Q: And the “Fraction Paralyzed” value [5]?
A: The value was 0.0.

Q: What about the “Fraction Punc” value [5] of the same compound?
A: The value was 0.0 and 0.167.

Q: And the “NP (number of animals)” value [5]?
A: Its value is 15.

Q: And the “P (number of animals)” value [5]?
A: Its value is 0.

Q: What about the “Punc (number of animals)” value [5] of the same compound?
A: Its value is 0 and 3.

Q: What about the “AVERAGES Fraction Coiled” value (15 μM, 360 min) of the same compound?
A: The value was 0.0.

Q: What about the “AVERAGES Fraction Paralyzed” value (15 μM, 360 min) of the same compound?
A: Its value is 0.0.

Q: And the “AVERAGES Fraction Punc” value (15 μM, 360 min)?
A: The value was 0.0.

Q: And the “C1 (number of animals)” value [6]?
A: The value was 0.

Q: What about the “C2 (number of animals)” value [6] of the same compound?
A: Its value is 0.

Q: What about the “Fraction Coiled” value [6] of the same compound?
A: The value was 0.0.

Q: And the “Fraction Paralyzed” value [6]?
A: Its value is 0.0.

Q: What about the “Fraction Punc” value [6] of the same compound?
A: Its value is 0.0.

Q: And the “NP (number of animals)” value [6]?
A: Its value is 18.

Q: What about the “P (number of animals)” value [6] of the same compound?
A: The value was 0.

Q: And the “Punc (number of animals)” value [6]?
A: The value was 0.

Q: What about the “Next Day Animals alive (moving fine)” value (15 μM, next day, single replicate) of the same compound?
A: Its value is “alive, recovered”.

Q: And the “any phene, mean % fraction of young adults exhibiting any phenotype (coiled, jerky-Unc or paralyzed)” value (15uM)?
A: The value was 45%.

Q: And the “atypical locomotion (number of animals)” value (15uM)?
A: Its value is 4 and 2 and 5 and 8.

Q: And the “coiled (number of animals)” value (15uM)?
A: Its value is 0 and 1 and 6 and 3.

Q: And the “no phene (number of animals)” value (15uM)?
A: The value was 16 and 15 and 17 and 18 and 0.

Q: What about the “paralyzed (number of animals)” value (15uM) of the same compound?
A: Its value is 0 and 9.

Q: What about the “AVERAGES Fraction Coiled” value (30 μM, 30 min) of the same compound?
A: Its value is 0.0556.

Q: And the “AVERAGES Fraction Paralyzed” value (30 μM, 30 min)?
A: Its value is 0.0.

Q: And the “AVERAGES Fraction Punc” value (30 μM, 30 min)?
A: Its value is 0.6.

Q: What about the “C1 (number of animals)” value [7] of the same compound?
A: The value was 0 and 2.

Q: And the “C2 (number of animals)” value [7]?
A: Its value is 1 and 0.

Q: And the “Fraction Coiled” value [7]?
A: Its value is 0.0556 and 0.0 and 0.111.

Q: What about the “Fraction Paralyzed” value [7] of the same compound?
A: Its value is 0.0.

Q: What about the “Fraction Punc” value [7] of the same compound?
A: The value was 0.6 and 0.444 and 0.7.

Q: What about the “NP (number of animals)” value [7] of the same compound?
A: Its value is 6 and 10 and 3.

Q: And the “P (number of animals)” value [7]?
A: The value was 0.

Q: And the “Punc (number of animals)” value [7]?
A: The value was 11 and 8 and 13.

Q: And the “AVERAGES Fraction Coiled” value (30 μM, 60 min)?
A: The value was 0.0752.

Q: And the “AVERAGES Fraction Paralyzed” value (30 μM, 60 min)?
A: Its value is 0.0.

Q: And the “AVERAGES Fraction Punc” value (30 μM, 60 min)?
A: The value was 0.7.

Q: What about the “C1 (number of animals)” value [8] of the same compound?
A: Its value is 0.

Q: What about the “C2 (number of animals)” value [8] of the same compound?
A: The value was 3 and 1 and 0.

Q: What about the “Fraction Coiled” value [8] of the same compound?
A: Its value is 0.167 and 0.0588 and 0.0.

Q: And the “Fraction Paralyzed” value [8]?
A: Its value is 0.0.

Q: What about the “Fraction Punc” value [8] of the same compound?
A: Its value is 0.7 and 0.529 and 0.9.

Q: And the “NP (number of animals)” value [8]?
A: Its value is 2 and 7 and 1.

Q: What about the “P (number of animals)” value [8] of the same compound?
A: The value was 0.

Q: And the “Punc (number of animals)” value [8]?
A: Its value is 13 and 9 and 17.

Q: What about the “AVERAGES Fraction Coiled” value (30 μM, 90 min) of the same compound?
A: The value was 0.0556.

Q: And the “AVERAGES Fraction Paralyzed” value (30 μM, 90 min)?
A: The value was 0.0556.

Q: And the “AVERAGES Fraction Punc” value (30 μM, 90 min)?
A: Its value is 0.667.

Q: And the “C1 (number of animals)” value [9]?
A: Its value is 0.

Q: What about the “C2 (number of animals)” value [9] of the same compound?
A: Its value is 1 and 2 and 0.

Q: And the “Fraction Coiled” value [9]?
A: The value was 0.0556 and 0.111 and 0.0.

Q: What about the “Fraction Paralyzed” value [9] of the same compound?
A: Its value is 0.167 and 0.0.

Q: What about the “Fraction Punc” value [9] of the same compound?
A: Its value is 0.7 and 0.5 and 0.8.

Q: What about the “NP (number of animals)” value [9] of the same compound?
A: The value was 1 and 7 and 4.

Q: And the “P (number of animals)” value [9]?
A: Its value is 3 and 0.

Q: And the “Punc (number of animals)” value [9]?
A: Its value is 13 and 9 and 14.
